Each structure is given as a SMILES string. Values after ≈ are worked out from the molar mass of the structure shown.

A short description of one series: physchem. Particulars: 20 °C, water, thermodynamic from solid.
A short description of series [1]: Solubility in water per Japanese Pharmacopoeia (13th Amendment). Particulars: 20 °C, thermodynamic from solid.
Protocol: (§1) As used herein, the term “solubility” in accordance with the Japanese Pharmacopoeia (the 13th Amendment) refers to the degree of dissolution of a medicament in a solvent within 30 minutes when 1 g of the medicament is added to the solvent and mixing them with vigorous shaking at intervals of 5 minutes at 20° C.±5° C. In the present specification, the solubility is evaluated in accordance with this method. When the amount (ml) of water required to dissolve 1 g of a medicament is 30 ml or more, the solubility of the medicament represents the grades of “slightly soluble” or “hardly soluble”.
Series [2] in a line: Dissolution test, paddle method, second solution (artificial intestinal juice, pH 6.8). Format: physicochemical. The following applies: artificial intestinal juice (second solution, pH 6.8); within two hours; FIG. 3. From the text:
As used herein, the term “artificial intestinal juice (the second solution, pH 6.8)” refers to a phosphate buffer of pH 6.8 as described in the Japanese Pharmacopoeia (the 13th Amendment), the section of dissolution test, the second method (paddle method). As used herein, the term “dissolution rate” refers to a value given by dividing the actual elution concentration of a slightly soluble medicament by the calculated elution concentration and expressing the resultant value as a percent. Here, the term “calculated elution concentration” refers to the concentration given when hypothesizing that the entire slightly soluble medicament added to the second solution is dissolved. For example, the calculated elution concentration of a slightly soluble medicament given when 5 g of the medicament is added to 500 ml of the second solution is 10 mg/ml. In this case, when the actual elution concentration is 5 mg/ml, the dissolution rate is 50%.
In general, the dissolution rate of a slightly soluble medicament by itself is slow in the artificial intestinal juice, and the saturated dissolution amount is small. Therefore, the saturated dissolution concentration tends to be smaller than the calculated concentration. […]

Protocol for physchem: as §1

Compound `CC(=O)Nc1ccc(O)cc1` [Acetaminophen, acetaminophen] had a solubility at 30 min in the series “physchem” of 13100 µg/mL (≈ 86.7 mM).
In series [1], `CC(=O)Oc1ccccc1C(=O)O` [Aspirin, aspirin] had a solubility at 30 min of 3630 µg/mL (≈ 20.1 mM).
Consider `CCOc1ccccc1C(N)=O` [Ethenzamide], for which the solubility at 30 min in series [1] is < 100 µg/mL.
Consider `COc1ccc2c(c1)c(CC(=O)O)c(C)n2C(=O)c1ccc(Cl)cc1` [Indomethacin, indomethacin], for which the solubility at 30 min in “physchem” was < 100 µg/mL. Moreover, the dissolution rate result in series [2] is “less than 40%”.

The solubility is the dissolved amount per volume that the medium holds. Low values mean little dissolved substance, high ones much dissolved substance.

Source of the values: patent US20030206953A1, “Aggregates of spherical multivalent metal alginate microparticles and methods of making them” (priority 1997, published 2003).
